In US20260209202A1, “N-METHYL-4-(QUINOLIN-2-YL)PYRIDIN-2-AMINE COMPOUNDS” (Abbvie Inc., priority 2023, published 2026):

How the values were obtained:
[1] = biological target: tau aggregates in globus pallidus and putamen of PSP brains (Homo sapiens, UniProt P10636); assay: Homologous (self-) displacement in vitro autoradiography on FF PSP brain sections; format: binding; conditions: 3 nM radioligand displaced by corresponding non-radiolabeled compound, mean of three PSP brains, read-out: sdKD (KD determined by means of self-displacement experiments)
Sequence of tau aggregates in globus pallidus and putamen of PSP brains (Homo sapiens, UniProt P10636) (P10636 with tags, fused parts or gaps): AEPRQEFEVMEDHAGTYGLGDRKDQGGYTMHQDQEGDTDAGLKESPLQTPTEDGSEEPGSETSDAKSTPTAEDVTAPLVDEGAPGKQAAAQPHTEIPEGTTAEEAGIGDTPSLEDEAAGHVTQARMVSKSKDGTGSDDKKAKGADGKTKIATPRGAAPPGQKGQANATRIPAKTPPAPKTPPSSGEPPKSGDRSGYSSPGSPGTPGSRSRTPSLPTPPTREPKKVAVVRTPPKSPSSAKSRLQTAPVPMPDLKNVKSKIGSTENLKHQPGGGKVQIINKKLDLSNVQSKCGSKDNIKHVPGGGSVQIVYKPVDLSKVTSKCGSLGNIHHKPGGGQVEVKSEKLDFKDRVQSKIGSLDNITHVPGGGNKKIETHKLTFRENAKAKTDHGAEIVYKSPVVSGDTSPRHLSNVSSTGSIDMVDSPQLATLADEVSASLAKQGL
Description: Brain Tissue. Flash-frozen (FF) tissue blocks, and, for some cases, the corresponding mirrored, formalin-fixed, paraffin-embedded (FFPE) tissue blocks from the globus pallidus and putamen of normal or Progressive Supranuclear Palsy (PSP) brains were purchased from Tissue Solutions Ltd (TS; Glasgow, UK). Both FF and FFPE tissue blocks were used to assess the distribution pattern of [3H] Compound (I) and [3H] Compound (II) binding to normal and PSP brain samples by means of in vitro autoradiography. Only FF tissue blocks were used to determine the affinity of [^3H] Compound (I) and [^3H] Compound (II) for PSP brain by means of in vitro autoradiography. […] The plates were read using a Phosphoimager Typhoon™ FLA-70001P (GE Healthcare, Chicago, IL USA). […] Quantitative analysis of the in vitro autoradiography results. Quantitative analysis was performed by computer assisted micro-densitometry (MCD; MCID basic, Interfocus, Devon, UK). […] Identification of the areas of interest was determined by reference to the Atlas of the Human Brain (Mai et al., 2015, Elsevier, ISBN:9780128028018). […]

[2] = tested on: tau aggregates in globus pallidus and putamen of PSP brains; assay: In vitro autoradiography of radioligand binding to sections of globus pallidus and putamen from PSP and normal brains; design: species or system human
Description: Brain Tissue. Flash-frozen (FF) tissue blocks, and, for some cases, the corresponding mirrored, formalin-fixed, paraffin-embedded (FFPE) tissue blocks from the globus pallidus and putamen of normal or Progressive Supranuclear Palsy (PSP) brains were purchased from Tissue Solutions Ltd (TS; Glasgow, UK). Both FF and FFPE tissue blocks were used to assess the distribution pattern of [3H] Compound (I) and [3H] Compound (II) binding to normal and PSP brain samples by means of in vitro autoradiography. Only FF tissue blocks were used to determine the affinity of [^3H] Compound (I) and [^3H] Compound (II) for PSP brain by means of in vitro autoradiography. […]
In vitro autoradiography. […] The plates were read using a Phosphoimager Typhoon™ FLA-70001P (GE Healthcare, Chicago, IL USA). […]
Quantitative analysis of the in vitro autoradiography results. Quantitative analysis was performed by computer assisted micro-densitometry (MCD; MCID basic, Interfocus, Devon, UK). […] Identification of the areas of interest was determined by reference to the Atlas of the Human Brain (Mai et al., 2015, Elsevier, ISBN:9780128028018). […]

[3] = PET imaging in cynomolgus macaques, baseline and homologous self-block; format: in vivo; conditions: for off-target binding in brain: healthy cynomolgus macaques; for blood brain barrier crossing / brain uptake and clearance: intravenous radiotracer
Experimental: PET imaging procedures in cynomolgus macaques were performed under the guidelines of the Institutional Animal Care and Use Committee. Anesthesia was maintained using isoflurane gas maintained at 1.25-3.0% for the duration of the imaging procedures. Prior to PET imaging, a head computed tomography (CT) was acquired using a Neurologica CereTom® CT system (Neurologica, Danvers, MA, USA) which was used for localization of the animal in the PET system, and later for attenuation correction of the PET data.
The radiotracer was administered as a bolus injection (3 mL over 2 minutes), and data collected in dynamic list mode emission acquisition was initiated using a Siemens Concorde microPET® Focus™ 220 (Siemens USA, Washington DC, USA) for 120 minutes. Arterial blood samples were acquired throughout the PET acquisition to measure radioactivity in whole blood and plasma and to assess the % parent and metabolite(s) for generation of an input function for kinetic modeling analysis. The whole blood arterial samples were acquired, initially rapidly (every 30 seconds) and decreased in frequency towards the end of the PET acquisition to every 30 minutes. Arterial whole blood samples were counted in a well counter (PerkinElmer Wizard® 1470; PerkinElmer, Waltham, MA, USA) for radioactivity concentration. Samples were then centrifuged (3000 RCF for 5 minutes) to allow extraction of plasma which was subsequently counted for radioactivity concentration. To determine the proportion of unchanged radiotracer, selected plasma samples (1, 2, 3, 4, 7, 9, 15, 20, 40, 60, 90, and 120 minutes) were extracted with equal volumes of acetonitrile, then injected onto a Dionex/Thermo Ultimate 3000 radio-HPLC system (ThermoFisher, Waltham, MA, USA) consisting of a Phenomenex® Onyx™ C18 10×100 mm column (Torrance, CA, USA), an Eckert and Ziegler coincidence BGO radiodetector (model B-FC-4100, Eckert and Ziegler, Atlanta, GA, USA) and a mobile phase of (A) 10 mM ammonium acetate and (B) acetonitrile. The conditions for [^18F] Compound (I) are: 0-2.5 min, 95% A at 4 mL/min; 2.5-2.6 min, 95% A to 50% A at 4 mL/min to 3 mL/min; 2.6-10 min, 50% A at 3 mL/min; 10-10.1 min, 50% A to 95% A at 3 mL/min to 4 mL/min; 10.1-13 min, 95% A at 4 mL/min. Retention time for [^18F] Compound (I) was 8.4 min. The conditions for [^18F] Compound (II) are: 0-2.5 min, 95% A at 4 mL/min; 2.5-2.6 min, 95% A to 65% A at 4 mL/min to 3 mL/min; 2.6-10 min, 65% A at 3 mL/min; 10-10.1 min, 65% A to 95% A at 3 mL/min to 4 mL/min; 10.1-13 min, 95% A at 4 mL/min. Retention time for [^18F] Compound (II) was 9.3 min. Arterial sampling data was used to generate the input function for kinetic modeling. Potential off-target specific binding in the brain was evaluated for each lead radiotracer using a pre-dosing paradigm in which PET was performed after administration of a 1 mg/kg homologous dose of the non-radioactive tracer over a 15-minute infusion 20 minutes prior to radiotracer injection.
Upon the completion of PET image acquisition, anesthesia was terminated, primates were monitored until fully alert, then transported to their cages. In addition to PET imaging, each primate underwent separate MRI imaging (GE Discovery™ 3T MR750 MRI scanner and GE Signa™ HDxt 1.5T MRI scanner, GE Healthcare, Chicago, IL, USA) for acquisition of a structural T1w image for purposes of co-registration and transformation to a standard atlas space. The PET data analysis was performed, and images were reconstructed using Siemens MicroPET® Manager and AsiPro (Siemens) software. PET list mode data was binned into sinograms with time frames of 6×30 seconds, 3×1 minutes, 2×2 minutes, 22×5 minutes. Images were reconstructed using filtered back projection using a Hanning filter with a 0.5 cycles/pixel cutoff. Corrections for attenuation (using the acquired CT), scatter, and deadtime correction were applied. Furthermore, the dynamic images were decay-corrected to start of PET acquisition, which coincided with the radiotracer injection. […]

Structure (SMILES) | Kd [1] [nM] | amount of radioligand bound to the tissue, PSP brains versus normal brains ([2]; 3 nM radioligand, grey matter of FF globus pallidus and putamen sections) [times] | selectivity for tau aggregates in PSP affected brain tissue as compared to healthy brain tissue ([2]; globus pallidus and putamen) | off-target binding in brain [3] | relative brain uptake among the tracers ([3]; initial brain SUV after injection) | blood brain barrier crossing [3] | brain uptake and clearance [3]
CNc1cc(-c2ccc3cc(OCCOC)cc(F)c3n2)ccn1 [[^3H] Compound (I)] [4-[8-fluoro-6-(2-methoxyethoxy)quinolin-2-yl]-N—(^3H3)methylpyridin-2-amine] | 12.4 |  |  |  |  |  | 
[3H]C([3H])([3H])Nc1cc(-c2ccc3cc(OCCOC)cc(F)c3n2)ccn1 [[^3H] Compound (I)] [4-[8-fluoro-6-(2-methoxyethoxy)quinolin-2-yl]-N—(^3H3)methylpyridin-2-amine] |  | 2.1 | high degree of selectivity |  |  |  | 
CNc1cc(-c2ccc3cc(OCCOC)cc([18F])c3n2)ccn1 [[^18F] Compound (I), 4-[8-(^18F)fluoro-6-(2-methoxyethoxy)quinolin-2-yl]-N-methylpyridin-2-amine] |  |  |  | did not show significant off-target binding | highest uptake | ability to cross the blood brain barrier | rapid uptake and rapid clearance
CNc1cc(-c2ccc3cc(N4CC(O)(C[18F])C4)ccc3n2)ccn1 [[^18F] Compound (II), 3-[(^18F)fluoromethyl]-1-{2-[2-(methylamino)pyridin-4-yl]quinolin-6-yl}azetidin-3-ol] |  |  |  | did not show significant off-target binding |  | ability to cross the blood brain barrier | rapid uptake and rapid clearance
